The values below come from patent publication US20190231847A1, “TREATMENT OF OCULAR DISEASE” (priority 2016, published 2019).

In test [1] the test system is neovascularisation induced by sutures in the cornea. The test is described as follows: Rat corneal suture model, Example 1 (blinded grading at day 6, images). In kind it is in vivo. How it is done: To assess the action of ALM201 (SEQ ID NO:3) on the ocular surface, the ability to halt vessel growth was measured. Vessel growth was stimulated through a well-accepted model (Shi et al., 2011) whereby a suture was placed in the central cornea of rat eyes (FIG. 1). We have shown the rat eye is similar anatomically to the human eye (Moore J E, McMullen C B, Mahon G and Adamis A P. The corneal epithelial stem cell. DNA Cell Biol. 2002; 21(5-6):443-51; incorporated herein by reference).
The experimental groups were: • Subconjunctival injection of peptide (5 rats), control group (5 rats) and positive control group (5 rats) • Intrastromal injection of peptide (5 rats), control group (5 rats) and positive control group (5 rats) • Topical application of peptide (5 rats), control group (5 rats) and positive control group (5 rats)
A suture was placed in the central cornea of one eye of each animal while the control eye remained untouched. For the injection groups, peptide was added to the rat's eyes at day 0, day 3, and day 6. For the topical application group, peptide and the positive control was added daily. Each day after suture, rats were monitored for vessel growth and photographed using a Hawk Eye Portable Digital Slit Lamp (Dioptrix, France) and inverted microscope (Nikon's E600FN; Surrey, UK). At a time point when a difference is noted (e.g. day 6) between untreated and peptide treated animals, they received 8 μg/g tail vein injections of an endothelial-specific fluorescein-conjugated lectin (Lycopersicon esculentum; Vector Laboratories, Burlingame, Calif.). Thirty minutes later, the eyes were harvested and fixed with 10% neutral buffered formalin for 24 hours. The corneas were isolated and flat-mounted on glass slides. The fluorescence in the perfused vessels was captured using a Leica SP5 multiphoton microscope (Milton Keynes, UK). Vessel formation within tagged information file format (.tiff) files was measured by visualization with Image J (Rasband, 1997-2014).
At day 6 all rats were graded by an opthalmologist blinded to the treatment. Grading scales were as follows:
Vessel distance from suture: 0=no reach; 1=small distance; 2=moderate distance; 3=¾ of the way; 4=reached sutures;
Vessel density grading: 0=no density; 1=mild; 2=moderate; 3=high Inflammation grading: 0=none; 1=minimal; 2=moderate; 3=severe;

Test [2] concerns infiltrated cells and CD68+ cells in sutured cornea. The test is described as follows: Histological analysis (H&E, CD68+) of sutured rat eyes, Example 3. The conditions noted are these: topical ALM201, day 6 after suture and treatment. In kind it is in vivo. How it is done: FIG. 11 Histological analysis by haematoxylin and eosin (H&E) staining showing increased infiltration of cells in control samples (PBS or dexamethasone) compared to treated samples (ALM201, 1 μM or 100 μM) at day 6 after suture and treatment. (A) Haematoxylin and eosin stained sections for each of the experimental groups. White arrows indicate sutures and black arrows show blood vessels (scale bar=500 μm). […] (B) The number of total infiltrated cells and (C) number of CD68+ infiltrated cells in each experimental group was quantitated, with higher numbers of infiltrated cells present in the control group compared to the peptide treated group.
On day 0, sutures where placed into the cornea of rats to induce corneal neovascularisation and inflammation. The eyes were treated for 3 days or 6 days with 16 μl of ALM201 (100 nM and 100 μM) or PBS (vehicle control).
Eyes were enucleated on the 3rd or 6th day one hour after treatment and frozen in gelatine.
Cross sections (10 μm) were taken at the centre of the eye for MSI, adjacent sections were stained with haematoxylin and eosin (H&E).

For “IRQQPRDPPTETLELEVSPDPAS (listed as Homo Sapiens) [ALM201]”, the “Suture-induced neovascularisation in images” value in test [1] (Hooded Lister Rats, 100 nM ALM201, dexamethasone, vs PBS control) is listed as “absence of neovascularisation”. Further, the “Growth of new blood vessels after corneal damage” value in test [1] (after subconjunctival injection or topical application) is given as “prevented growth of new blood vessels”. Also, in test [1] (subconjunctival injection day 0, 3, 6, 100 nM ALM201, graded day 6), the “Vessel distance from suture compared to PBS control” value is reported as “significant difference of p<0.01”. The “Vasculature in images (neovascularisation induced by sutures)” value in test [1] (subconjunctival injection, 100 nM ALM201, Triamcinolone positive control) is on record as “normal vasculature”. In test [1] (topical treatment, daily), the “Vasculature in images (neovascularisation induced by sutures)” value is recorded as “normal vasculature” and the “Vessel density compared to PBS control” value is “significantly different”. Also, the Anti-inflammatory activity entry in test [1] (when injected) was “had anti-inflammatory activity when injected”. In addition, in test [2], the “CD68+ cell infiltrates compared to PBS-treated and dexamethasone-treated animals” value is listed as “reduced”; the “Neovascularisation in histological analysis compared to controls” value is “decreased neovascularisation”; the “Total cell infiltrates compared to PBS-treated and dexamethasone-treated animals” value is reported as “reduced total cell infiltrates”.
